In brackets after ≈: the same amount, converted by molar mass.
Tests used:
Format in all cases: functional
Details in all cases: time 16-18 hrs
Klebsiella pneumoniae = assay: Antibacterial activity against Klebsiella pneumoniae CICC 21611 after 16 to 18 hrs by broth microdilution method
Staphylococcus aureus [1] = assay: Antibacterial activity against methicillin-resistant Staphylococcus aureus ATCC 43300 after 16 to 18 hrs by broth microdilution method
[2] = tested on: Staphylococcus epidermidis; assay: Antibacterial activity against Staphylococcus epidermidis after 16 to 18 hrs by broth microdilution method
Staphylococcus aureus [3] = assay: Antibacterial activity against methicillin-resistant Staphylococcus aureus Bio-090770 after 16 to 18 hrs by broth microdilution method
Acinetobacter baumannii [4] = assay: Antibacterial activity against Acinetobacter baumannii Bio 34235 after 16 to 18 hrs by broth microdilution method
Staphylococcus aureus [5] = assay: Antibacterial activity against methicillin-susceptible Staphylococcus aureus ATCC 25923 after 16 to 18 hrs by broth microdilution method
Staphylococcus aureus [6] = assay: Antibacterial activity against methicillin-susceptible Staphylococcus aureus ATCC 13709 after 16 to 18 hrs by broth microdilution method
Escherichia coli = assay: Antibacterial activity against Escherichia coli ATCC 25922 after 16 to 18 hrs by broth microdilution method
Staphylococcus aureus [7] = assay: Antibacterial activity against methicillin-resistant Staphylococcus aureus ATCC 33591 after 16 to 18 hrs by broth microdilution method
Staphylococcus aureus [8] = assay: Antibacterial activity against methicillin-susceptible Staphylococcus aureus ATCC 29213 after 16 to 18 hrs by broth microdilution method
Acinetobacter baumannii [9] = assay: Antibacterial activity against drug-resistant Acinetobacter baumannii Bio 53272 after 16 to 18 hrs by broth microdilution method

CCCC[C@H](CN(O)C=O)C(=O)N1CCC[C@H]1c1nnc(-c2ccccc2)s1
MIC (Klebsiella pneumoniae): > 16 µg/mL | MIC (Staphylococcus aureus [1]): 4 µg/mL (≈ 9.94 µM) | MIC [2]: 4 µg/mL (≈ 9.94 µM) | MIC (Staphylococcus aureus [3]): 8 µg/mL (≈ 19.9 µM) | MIC (Acinetobacter baumannii [4]): > 16 µg/mL | MIC (Staphylococcus aureus [5]): 4 µg/mL (≈ 9.94 µM) | MIC (Staphylococcus aureus [6]): 2 µg/mL (≈ 4.97 µM) | MIC (Escherichia coli): > 16 µg/mL | MIC (Staphylococcus aureus [7]): 2 µg/mL (≈ 4.97 µM) | MIC (Staphylococcus aureus [8]): 8 µg/mL (≈ 19.9 µM) | MIC (Acinetobacter baumannii [9]): > 16 µg/mL

CCCC[C@H](CN(O)C=O)C(=O)N1CCC[C@H]1c1nnc(-c2cc(C(F)(F)F)cc(C(F)(F)F)c2)s1
MIC (Klebsiella pneumoniae): > 16 µg/mL | MIC (Staphylococcus aureus [1]): 2 µg/mL (≈ 3.71 µM) | MIC [2]: > 16 µg/mL | MIC (Staphylococcus aureus [3]): 4 µg/mL (≈ 7.43 µM) | MIC (Acinetobacter baumannii [4]): > 16 µg/mL | MIC (Staphylococcus aureus [5]): 2 µg/mL (≈ 3.71 µM) | MIC (Staphylococcus aureus [6]): 2 µg/mL (≈ 3.71 µM) | MIC (Escherichia coli): > 16 µg/mL | MIC (Staphylococcus aureus [7]): 2 µg/mL (≈ 3.71 µM) | MIC (Staphylococcus aureus [8]): 4 µg/mL (≈ 7.43 µM) | MIC (Acinetobacter baumannii [9]): > 16 µg/mL

CCCC[C@H](CN(O)C=O)C(=O)N1CCC[C@H]1c1nnc(C2CCCC2)s1
MIC (Klebsiella pneumoniae): > 16 µg/mL | MIC (Staphylococcus aureus [1]): 0.5 µg/mL (≈ 1.27 µM) | MIC [2]: 1 µg/mL (≈ 2.53 µM) | MIC (Staphylococcus aureus [3]): 2 µg/mL (≈ 5.07 µM) | MIC (Acinetobacter baumannii [4]): > 16 µg/mL | MIC (Staphylococcus aureus [5]): 1 µg/mL (≈ 2.53 µM) | MIC (Staphylococcus aureus [6]): 2 µg/mL (≈ 5.07 µM) | MIC (Escherichia coli): > 16 µg/mL | MIC (Staphylococcus aureus [7]): 0.5 µg/mL (≈ 1.27 µM) | MIC (Staphylococcus aureus [8]): 2 µg/mL (≈ 5.07 µM) | MIC (Acinetobacter baumannii [9]): 8 µg/mL (≈ 20.3 µM)

CCCC[C@H](CN(O)C=O)C(=O)N1CCC[C@H]1c1nnc(-c2ccc(F)cn2)s1
MIC (Klebsiella pneumoniae): > 16 µg/mL | MIC (Staphylococcus aureus [1]): 0.5 µg/mL (≈ 1.19 µM) | MIC [2]: 2 µg/mL (≈ 4.74 µM) | MIC (Staphylococcus aureus [3]): 2 µg/mL (≈ 4.74 µM) | MIC (Acinetobacter baumannii [4]): 16 µg/mL (≈ 38 µM) | MIC (Staphylococcus aureus [5]): 2 µg/mL (≈ 4.74 µM) | MIC (Staphylococcus aureus [6]): 2 µg/mL (≈ 4.74 µM) | MIC (Escherichia coli): 16 µg/mL (≈ 38 µM) | MIC (Staphylococcus aureus [7]): 0.5 µg/mL (≈ 1.19 µM) | MIC (Staphylococcus aureus [8]): 1 µg/mL (≈ 2.37 µM) | MIC (Acinetobacter baumannii [9]): 8 µg/mL (≈ 19 µM)

CCCC[C@H](CN(O)C=O)C(=O)N1CCC[C@H]1c1nnc(-c2ccc(OC)c(OC)c2)s1
MIC (Klebsiella pneumoniae): > 16 µg/mL | MIC (Staphylococcus aureus [1]): 0.25 µg/mL (≈ 0.54 µM) | MIC [2]: 2 µg/mL (≈ 4.32 µM) | MIC (Staphylococcus aureus [3]): 1 µg/mL (≈ 2.16 µM) | MIC (Acinetobacter baumannii [4]): > 16 µg/mL | MIC (Staphylococcus aureus [5]): 1 µg/mL (≈ 2.16 µM) | MIC (Staphylococcus aureus [6]): 1 µg/mL (≈ 2.16 µM) | MIC (Escherichia coli): > 16 µg/mL | MIC (Staphylococcus aureus [7]): 0.25 µg/mL (≈ 0.54 µM) | MIC (Staphylococcus aureus [8]): 0.5 µg/mL (≈ 1.08 µM) | MIC (Acinetobacter baumannii [9]): 16 µg/mL (≈ 34.6 µM)

CCCC[C@H](CN(O)C=O)C(=O)N1CCC[C@H]1c1nnc(-c2cc(OC)c(OC)c(OC)c2)s1
MIC (Klebsiella pneumoniae): > 16 µg/mL | MIC (Staphylococcus aureus [1]): 0.5 µg/mL (≈ 1.02 µM) | MIC [2]: 2 µg/mL (≈ 4.06 µM) | MIC (Staphylococcus aureus [3]): 1 µg/mL (≈ 2.03 µM) | MIC (Acinetobacter baumannii [4]): > 16 µg/mL | MIC (Staphylococcus aureus [5]): 1 µg/mL (≈ 2.03 µM) | MIC (Staphylococcus aureus [6]): 0.5 µg/mL (≈ 1.02 µM) | MIC (Escherichia coli): > 16 µg/mL | MIC (Staphylococcus aureus [7]): 0.25 µg/mL (≈ 0.508 µM) | MIC (Staphylococcus aureus [8]): 4 µg/mL (≈ 8.12 µM) | MIC (Acinetobacter baumannii [9]): > 16 µg/mL

CCCC[C@H](CN(O)C=O)C(=O)N1CCC[C@H]1c1nnc(-c2c(F)cccc2[N+](=O)[O-])s1
MIC (Klebsiella pneumoniae): > 16 µg/mL | MIC (Staphylococcus aureus [1]): 2 µg/mL (≈ 4.3 µM) | MIC [2]: 4 µg/mL (≈ 8.59 µM) | MIC (Staphylococcus aureus [3]): 2 µg/mL (≈ 4.3 µM) | MIC (Acinetobacter baumannii [4]): > 16 µg/mL | MIC (Staphylococcus aureus [5]): 2 µg/mL (≈ 4.3 µM) | MIC (Staphylococcus aureus [6]): 2 µg/mL (≈ 4.3 µM) | MIC (Escherichia coli): > 16 µg/mL | MIC (Staphylococcus aureus [7]): 1 µg/mL (≈ 2.15 µM) | MIC (Staphylococcus aureus [8]): 2 µg/mL (≈ 4.3 µM) | MIC (Acinetobacter baumannii [9]): > 16 µg/mL

CCCC[C@H](CN(O)C=O)C(=O)N1CCC[C@H]1c1nnc(-c2ccc(C(F)(F)F)cc2)s1
MIC (Klebsiella pneumoniae): > 16 µg/mL | MIC (Staphylococcus aureus [1]): 2 µg/mL (≈ 4.25 µM) | MIC [2]: 4 µg/mL (≈ 8.5 µM) | MIC (Staphylococcus aureus [3]): 2 µg/mL (≈ 4.25 µM) | MIC (Acinetobacter baumannii [4]): > 16 µg/mL | MIC (Staphylococcus aureus [5]): 2 µg/mL (≈ 4.25 µM) | MIC (Staphylococcus aureus [6]): 4 µg/mL (≈ 8.5 µM) | MIC (Escherichia coli): > 16 µg/mL | MIC (Staphylococcus aureus [7]): 1 µg/mL (≈ 2.13 µM) | MIC (Staphylococcus aureus [8]): 4 µg/mL (≈ 8.5 µM) | MIC (Acinetobacter baumannii [9]): 16 µg/mL (≈ 34 µM)

CCCC[C@H](CN(O)C=O)C(=O)N1CCC[C@H]1c1nnc(-c2cccc3ccccc23)s1
MIC (Klebsiella pneumoniae): > 16 µg/mL | MIC (Staphylococcus aureus [1]): 16 µg/mL (≈ 35.4 µM) | MIC [2]: 2 µg/mL (≈ 4.42 µM) | MIC (Staphylococcus aureus [3]): 16 µg/mL (≈ 35.4 µM) | MIC (Acinetobacter baumannii [4]): > 16 µg/mL | MIC (Staphylococcus aureus [5]): 16 µg/mL (≈ 35.4 µM) | MIC (Staphylococcus aureus [6]): 16 µg/mL (≈ 35.4 µM) | MIC (Escherichia coli): > 16 µg/mL | MIC (Staphylococcus aureus [7]): 4 µg/mL (≈ 8.84 µM) | MIC (Staphylococcus aureus [8]): 16 µg/mL (≈ 35.4 µM) | MIC (Acinetobacter baumannii [9]): > 16 µg/mL

CCCC[C@H](CN(O)C=O)C(=O)N1CCC[C@H]1c1nnc(-c2ccc(F)cc2)s1
MIC (Klebsiella pneumoniae): > 16 µg/mL | MIC (Staphylococcus aureus [1]): 1 µg/mL (≈ 2.38 µM) | MIC [2]: 2 µg/mL (≈ 4.76 µM) | MIC (Staphylococcus aureus [3]): 2 µg/mL (≈ 4.76 µM) | MIC (Acinetobacter baumannii [4]): > 16 µg/mL | MIC (Staphylococcus aureus [5]): 2 µg/mL (≈ 4.76 µM) | MIC (Staphylococcus aureus [6]): 1 µg/mL (≈ 2.38 µM) | MIC (Escherichia coli): 16 µg/mL (≈ 38 µM) | MIC (Staphylococcus aureus [7]): 0.25 µg/mL (≈ 0.595 µM) | MIC (Staphylococcus aureus [8]): 2 µg/mL (≈ 4.76 µM) | MIC (Acinetobacter baumannii [9]): 8 µg/mL (≈ 19 µM)

CCCC[C@H](CN(O)C=O)C(=O)N1CCC[C@H]1c1nnc(C)s1
MIC (Klebsiella pneumoniae): > 16 µg/mL | MIC (Staphylococcus aureus [1]): 4 µg/mL (≈ 11.7 µM) | MIC [2]: 0.25 µg/mL (≈ 0.734 µM) | MIC (Staphylococcus aureus [3]): 4 µg/mL (≈ 11.7 µM) | MIC (Acinetobacter baumannii [4]): > 16 µg/mL | MIC (Staphylococcus aureus [5]): 4 µg/mL (≈ 11.7 µM) | MIC (Staphylococcus aureus [6]): 4 µg/mL (≈ 11.7 µM) | MIC (Escherichia coli): 16 µg/mL (≈ 47 µM) | MIC (Staphylococcus aureus [7]): 1 µg/mL (≈ 2.94 µM) | MIC (Staphylococcus aureus [8]): 4 µg/mL (≈ 11.7 µM) | MIC (Acinetobacter baumannii [9]): 8 µg/mL (≈ 23.5 µM)

CCCC[C@H](CN(O)C=O)C(=O)N1CCC[C@H]1c1nnc(-c2ccco2)s1
MIC (Klebsiella pneumoniae): 32 µg/mL (≈ 81.5 µM) | MIC (Staphylococcus aureus [1]): 0.5 µg/mL (≈ 1.27 µM) | MIC [2]: 0.5 µg/mL (≈ 1.27 µM) | MIC (Staphylococcus aureus [3]): 2 µg/mL (≈ 5.1 µM) | MIC (Acinetobacter baumannii [4]): 16 µg/mL (≈ 40.8 µM) | MIC (Staphylococcus aureus [5]): 4 µg/mL (≈ 10.2 µM) | MIC (Staphylococcus aureus [6]): 1 µg/mL (≈ 2.55 µM) | MIC (Escherichia coli): 64 µg/mL (≈ 163 µM) | MIC (Staphylococcus aureus [7]): 0.5 µg/mL (≈ 1.27 µM) | MIC (Staphylococcus aureus [8]): 2 µg/mL (≈ 5.1 µM) | MIC (Acinetobacter baumannii [9]): 16 µg/mL (≈ 40.8 µM)

CCCC[C@H](CN(O)C=O)C(=O)N1CCC[C@H]1c1nnc(-c2cc(C)nn2C)s1
MIC (Klebsiella pneumoniae): 32 µg/mL (≈ 76.1 µM) | MIC (Staphylococcus aureus [1]): 0.25 µg/mL (≈ 0.594 µM) | MIC [2]: 1 µg/mL (≈ 2.38 µM) | MIC (Staphylococcus aureus [3]): 1 µg/mL (≈ 2.38 µM) | MIC (Acinetobacter baumannii [4]): 32 µg/mL (≈ 76.1 µM) | MIC (Staphylococcus aureus [5]): 1 µg/mL (≈ 2.38 µM) | MIC (Staphylococcus aureus [6]): 1 µg/mL (≈ 2.38 µM) | MIC (Escherichia coli): 64 µg/mL (≈ 152 µM) | MIC (Staphylococcus aureus [7]): 0.25 µg/mL (≈ 0.594 µM) | MIC (Staphylococcus aureus [8]): 1 µg/mL (≈ 2.38 µM) | MIC (Acinetobacter baumannii [9]): 16 µg/mL (≈ 38 µM)

CN[C@H](CC(C)C)C(=O)N[C@H]1C(=O)N[C@@H](CC(N)=O)C(=O)N[C@H]2C(=O)N[C@H]3C(=O)N[C@H](C(=O)N[C@H](C(=O)O)c4cc(O)cc(O)c4-c4cc3ccc4O)[C@H](O)c3ccc(c(Cl)c3)Oc3cc2cc(c3O[C@@H]2O[C@H](CO)[C@@H](O)[C@H](O)[C@H]2O[C@H]2C[C@](C)(N)[C@H](O)[C@H](C)O2)Oc2ccc(cc2Cl)[C@H]1O [VANCOMYCIN]
MIC (Klebsiella pneumoniae): 16 µg/mL (≈ 11 µM) | MIC (Staphylococcus aureus [1]): 0.25 µg/mL (≈ 0.173 µM) | MIC [2]: 16 µg/mL (≈ 11 µM) | MIC (Acinetobacter baumannii [4]): 16 µg/mL (≈ 11 µM) | MIC (Escherichia coli): 16 µg/mL (≈ 11 µM) | MIC (Acinetobacter baumannii [9]): 16 µg/mL (≈ 11 µM)
